Measurements as given in USRE30633E, “3-Lower alkylcarbamylsulfonamido-4-phenylaminopyridines, n-oxides, derivatives thereof and pharmaceutical compositions containing same” (A. Christiaens Societe Anonyme, priority 1974, dated 1981).

Columns and labels:
[1] = system: rats; test: Pharmacological test for diuretic properties (urine volume); type: in vivo; conditions: 50 mg/kg gastric gavage, 25 ml/kg saline s.c., urine collected 4 hours, ml/kg of body weight
Description: 2. Pharmacological tests for diuretic properties Lots of 3 rats weighting 250-300 g have been constituted at random, each of them being submitted to the same treatment. The compound to be tested was administered by .[.gastric gavage at a dose of 50 ml/kg as a solution or a.]. .Iadd.gastric gavage at a dose of 50 mg/kg as a solution or a .[…].suspension in water containing 0.45% of methylcellulose (which is an inert mucilaginous substance). Control animals received only distilled water as a placebo. At the same time, all the animals received 25 ml/kg of physiological saline by subcutaneous injection. The rats were then placed in metabolic cages, each cage containing 3 animals receiving the same treatment. The urines have been collected during 4 hours. […] The diuresis is expressed in ml/kg of body weight.

[2] = system: paw of rats; test: Pharmacological test for anti-inflammatory properties (carrageenan rat paw swelling); type: in vivo; conditions: oral 1 hour before carrageenan (0.05 ml of 1%), swelling 4 hours after injection by plethysmography, dose not given
Description: 1. Pharmacological test for anti-inflammatory properties.
The compounds to be tested are given as freshly prepared solutions or suspensions by oral route 1 hour before injecting the paw of rats with carrageenan which is a known inflammatory agent.
The inflammatory agent (carrageenan) either in solution or suspension is then injected into the plantar tissue of the right hind paw of each rat, the left paw remaining untreated and serving as control. Each animal receives, for example, 0.05 ml of an aqueous solution containing 1% by weight of carrageenan and 0.9% of sodium chloride.
4 hours after the injection of the inflammatory agent, the importance of swelling is determined by plethysmography and is expressed as a percent of the volume of the control paw.
The anti-inflammatory effect expressed as a percentage of inhibition is obtained by comparison between rats treated with the anti-inflammatory compound and a control group of rats.

SMILES	Diuresis [1]	% inhibition of acute oedema [2]
CC(C)(C)NC(=O)NS(=O)(=O)c1cnccc1Sc1cccc(Cl)c1 [JDL 385, 3-tertiobutylcarbamylsulfonamido-4-(3'-chloro)-thiophenoxypyridine]	17.6 mL/kg	46.6%
CCNC(=O)NS(=O)(=O)c1cnccc1Nc1ccccc1Cl [JDL 403, 3-ethylcarbamylsulfonamido-4-(2'-chloro)-phenylaminopyridine]	74.9 mL/kg	76.8%
CC(C)NC(=O)NS(=O)(=O)c1cnccc1Nc1cccc(Br)c1 [JDL 468, 3-isopropylcarbamylsulfonamido-4-(3'-bromo)-phenylaminopyridine]	77.2 mL/kg	72.0%
O=C(NC1CCCCC1)NS(=O)(=O)c1cnccc1Nc1cccc(Cl)c1 [JDL 389, 3-cyclohexylcarbamylsulfonamido-4-(3'-chloro)-phenylaminopyridine]	73.3 mL/kg	64.0%
NS(=O)(=O)c1cnccc1Oc1cccc(Cl)c1 [JDL 360, 3-sulfonamido-4-(3'-chloro)-phenoxypyridine]	5.2 mL/kg	33.6%
CNC(=O)NS(=O)(=O)c1cnccc1NCc1ccco1 [JDL 492, 3-methylcarbamylsulfonamido-4-methyl-furylaminopyridine]	14.9 mL/kg	88.8%
CC(C)(C)NC(=O)NS(=O)(=O)c1cnccc1Nc1ccccc1Cl [JDL 427, 3-tertiobutylcarbamylsulfonamido-4-(2'-chloro)-phenylaminopyridine]	11.4 mL/kg	53.6%
CC(C)(C)NC(=O)NS(=O)(=O)c1cnccc1Nc1cccc(Cl)c1 [JDL 388, 3-tertiobutylcarbamylsulfonamido-4-(3'-chloro)-phenylaminopyridine]	37.0 mL/kg	66.4%
CCCNC(=O)NS(=O)(=O)c1cnccc1N(C)c1ccccc1 [JDL 383, 3-pripylcarbamylsulfonamido-4-N-methyl-anilinopyridine]	57.8 mL/kg	55.2%
CC(C)NC(=O)NS(=O)(=O)c1cnccc1Nc1ccc(Cl)c(C(F)(F)F)c1 [JDL 487, 3-isopropylcarbamylsulfonamido-4-(3'-trifluoromethyl-4'-chloro)-phenylaminopyridine]	10.5 mL/kg	20.8%
Cc1cncc(S(=O)(=O)NC(=O)NC(C)C)c1Nc1cccc(Cl)c1 [JDL 503, 3-isopropylcarbamylsulfonamido-4-(3'-chloro)-phenylamino-5-methylpyridine]	48.9 mL/kg	71.2%
CCCNC(=O)NS(=O)(=O)c1cnccc1Nc1cccc(C(F)(F)F)c1 [JDL 355, 3-propylcarbamylsulfonamido-4-(3'-trifluoromethyl)phenylaminopyridine]	57.0 mL/kg	48.8%
CNC(=O)NS(=O)(=O)c1cncc(C)c1Nc1cccc(Cl)c1 [JDL 501, 3-methylcarbamylsulfonamido-4-(3'-chloro)-phenylamino-5-methylpyridine]	35.9 mL/kg	39.2%
CCCNC(=O)NS(=O)(=O)c1cnccc1Nc1ccc(Cl)cc1 [JDL 417, 3-propylcarbamylsulfonamido-4-(4'-chloro)-phenylaminopyridine]	58.3 mL/kg	72.8%
CCN(CC)c1ccncc1S(N)(=O)=O [JDL 484, 3-sulfonamido-4-diethylaminopyridine]	9.0 mL/kg	13.6%
CCNC(=O)NS(=O)(=O)c1cnccc1Nc1cccc(OC)c1 [JDL 469, 3-ethylcarbamylsulfonamido-4-(3'-methoxy)-phenylaminopyridine]	46.9 mL/kg	60.8%
CCCCNC(=O)NS(=O)(=O)c1cnccc1Nc1cccc(C(F)(F)F)c1 [JDL 356, 3-butylcarbamylsulfonamido-4-(3'-trifluoromethyl)-phenylaminopyridine]	54.7 mL/kg	80.8%
CC(C)(C)NC(=O)NS(=O)(=O)c1cnccc1Nc1cccc(C(F)(F)F)c1 [JDL 367, 3-tertbutylcarbamylsulfonamido-4-(3'-trifluoromethyl)-phenylaminopyridine]	11.1 mL/kg	80.0%

SMILES	Diuresis [1]	% inhibition of acute oedema [2]
CCCCNC(=O)NS(=O)(=O)c1cnccc1Nc1ccccc1Cl [JDL 422, 3-butylcarbamylsulfonamido-4(2'-chloro)-phenylaminopyridine]	56.7 mL/kg	46.4%
CCN(CC)c1ccncc1S(=O)(=O)NC(=O)NC(C)C [JDL 483, 3-isopropylcarbamylsulfonamido-4-diethylaminopyridine]	12.4 mL/kg	0%
CC(C)NC(=O)NS(=O)(=O)c1cnccc1Nc1ccccc1Cl [JDL 421, 3-isopropylcarbamylsulfonamido-4-(2'-chloro)-phenylaminopyridine]	72.0 mL/kg	88.8%
CNC(=O)NS(=O)(=O)c1cnccc1Nc1cccc(OC)c1 [JDL 493, 3-methylcarbamylsulfonamido-4-(3'-methoxy)-phenylaminopyridine]	50.7 mL/kg	59.2%
CCNC(=O)NS(=O)(=O)c1cnccc1NCc1ccco1 [JDL 471, 3-ethylcarbamylsulfonamido-4-methylfurylaminopyridine]	37.7 mL/kg	70.4%
CCc1cccc(Nc2ccncc2S(=O)(=O)NC(=O)NC(C)C)c1 [JDL 512, 3-isopropylcarbamylsulfonamido-4-(3'-ethyl)-phenylaminopyridine]	65.9 mL/kg	78.7%
CCCCNC(=O)NS(=O)(=O)c1cnccc1Nc1ccc(Cl)cc1 [JDL 424, 3-butylcarbamylsulfonamido-4-(4'-chloro)-phenylaminopyridine]	21.0 mL/kg	50.4%
CCCCNC(=O)NS(=O)(=O)c1cnccc1Sc1cccc(Cl)c1 [JDL 366, 3-butylcarbamylsulfonamido-4-(3'-chloro)-thiophenoxypyridine]	11.1 mL/kg	56.0%
CC(C)NC(=O)NS(=O)(=O)c1cnccc1Nc1ccc(Cl)c(Cl)c1 [JDL 476, 3-isopropylcarbamylsulfonamido-4-(3',4'-dichloro)-phenylaminopyridine]	42.1 mL/kg	92.0%
CCNC(=O)NS(=O)(=O)c1cnccc1Nc1cccc(C(F)(F)F)c1 [JDL 386, 3-ethylcarbamylsulfonamido-4-(3'-trifluoromethyl)-phenylaminopyridline]	80.5 mL/kg	80.8%
CCNC(=O)NS(=O)(=O)c1cnccc1Nc1cc(Cl)cc(Cl)c1 [JDL 473, 3-ethylcarbamylsulfonamido-4-(3',5'-dichloro)-phenylaminopyridine]	24.0 mL/kg	41.6%
CCCNC(=O)NS(=O)(=O)c1cnccc1Oc1cccc(Cl)c1 [JDL 365, 3-propylcarbamylsulfonamido-4-(3'-chloro)-phenoxypyridine]	8.7 mL/kg	43.2%
CCCNC(=O)NS(=O)(=O)c1cnccc1Sc1cccc(Cl)c1 [JDL 384, 3-propylcarbamylsulfonamido-4-(3'-chloro)-thiophenoxypyridine]	12.8 mL/kg	66.4%
O=C(Nc1ccccc1)NS(=O)(=O)c1cnccc1Nc1cccc(C(F)(F)F)c1 [JDL 368, 3-phenylcarbamylsulfonamido-4-(3'-trifluoromethyl)phenylaminopyridine]	6.1 mL/kg	57.0%
CCNC(=S)NS(=O)(=O)c1cnccc1Nc1cccc(Cl)c1 [JDL 478, 3-ethylthiocarbamylsulfonamido-4-(3'-chloro)-phenylaminopyridine]	29.7 mL/kg	29.6%
CCCNC(=O)NS(=O)(=O)c1cnccc1Nc1ccccc1Cl [JDL 404, 3-propylcarbamylsulfonamido-4-(2'-chloro)-phenylaminopyridine]	43.1 mL/kg	76.8%
CCNC(=O)NS(=O)(=O)c1cnccc1Nc1cccc(F)c1 [JDL 465, 3-ethylcarbamylsulfonamido-4-(3'-fluoro)-phenylaminopyridine]	76.7 mL/kg	71.2%
CC(C)NC(=S)NS(=O)(=O)c1cnccc1Nc1cccc(Cl)c1 [JDL 479, 3-isopropylthiocarbamylsulfonamido-4-(3'-chloro)-phenylaminopyridine]	44.3 mL/kg	45.6%
